Test results from patent US9161939B2, “Pyrrolo[2,3-d]pyrimidine compounds” (Zoetis LLC, priority 2008, dated 2015).

Experiments:
[1] = system: T-cell proliferation in canine whole blood (ConA + canine IL-2); assay: Canine In Vitro T-Cell Proliferation Assay; type: cell-based; details: Canis lupus familiaris, tritiated thymidine
Method: Methods: Canine whole blood was collected in sodium heparin tubes from 29 beagle dogs and 23 mixed breed dogs. Whole blood (20 μL) was plated in 96-well plates (Costar 3598) with 180 μL of medium (RPMI 1640, Gibco #21870-076, with 1% heat inactivated fetal bovine serum, Gibco #10082-39, 292 μg/ml L-glutamine, Gibco #250030-081, 100 u/ml penicillin and 100 μg streptomycin per ml, Gibco #15140-122) containing vehicle control or test compound (0.001 to 10 μM), concanavalin A (ConA; 1 μg/ml, Sigma C5275), and canine interleukin-2 (IL-2; 50 ng/ml, R&D Systems 1815-CL/CF). Wells containing whole blood, medium with vehicle control and no ConA or IL-2 were used as background controls. Plates were incubated at 37° C. for 48 hours. Tritiated thymidine, 0.4 μCi/well (Perkin Elmer, Net027A-005MC), was added for 20 additional hours. Plates were frozen and then thawed, washed and filtered using a Brandel MLR-96 cell harvester and prewet filter mats (Wallac 1205-401, Perkin Elmer). Filters were dried at 60° C. for one hour (Precision 16EG convection oven) and placed into filter sample bags (Wallac 1205-411, Perkin Elmer) with 10 mL of scintillant (Wallac 1205-440, Perkin Elmer). Sealed filters were counted on a LKB Wallac 1205 Betaplate liquid scintillation counter. Data were collected via Gterm Betaplate program v1.1 (Wallac copyright 1989-1990) and transformed into percent inhibition, calculated using the following formula: […]

[2] = system: flea-associated pruritus and dermatitis in flea allergic dogs; assay: Reducing Flea-Associated Pruritus and Dermatitis Assay; type: in vivo; details: for pruritus as compared to placebo (seconds of pruritus per 4 hour recording): 10% level of significance
Method: Twenty eight male and female dogs of mixed breeds ranging in weight from 5-35 kg and greater than one year of age were infested with approximately 100 unfed adult cat fleas (Ctenocephalides felis) 14 days prior to the start of dosing and reinfested with 30 fleas per dog every 4 days throughout the study. Seven days before dosing, twenty four dogs were randomized into three different treatment groups, placebo, 0.5 mg/kg or 0.25 mg/kg of the compound of Example 1b, based on visual analog scale (VAS) scores for skin lesions. Treatments were given orally twice a day for 28 days, and pruritic behavior as well as erythema and skin lesions were was assessed during the study. Pruritic behavior was recorded by placing dogs into pens with video recording capability, and recording their activity over 4 hours. Pruritic activity was quantitated by determining how many seconds the dogs spent scratching. Skin lesions were recorded by image capture of abdominal, inguinal region and the severity ranked according to a visual analog scale (VAS).
Video captured elapsed time of pruritic behavior was analyzed using a mixed linear model for repeated measures. The model included fixed effects of treatment and day of study and the interaction of treatment and day of study. Random effects included block, the interaction of block and treatment and error. Baseline data for pruritic behavior (day −1) were used as covariate in the analysis of pruritic behavior. Least squares means were used as estimates of treatment means. Standard errors of least squares means were estimated and 90% confidence intervals were constructed. Geometric means were computed from the least squares means for log-transformed data. A priori contrasts were used to assess treatment. Treatment differences were assessed at the 10% level of significance (P≦0.10).

[3] = system: MSU LN 10 Chemotherapy resistant B-cell lymphoma lymph node cells; assay: Cell Proliferation Inhibitory Assay, ex vivo canine lymphoma nodal tissue MSU LN 10; type: cell-based; details: Canis lupus familiaris; Canine MSU LN 10, Chemotherapy resistant B-cell lymphoma; LPS + ConA
Method: (§1) Malignant lymph nodes were excised by veterinary staff at Michigan State University (MSU) Veterinary College, placed into transport media (Advanced RPMI 1640 complete medium supplemented with 10% Fetal Bovine Serum (FBS), 100 U/mL penicillin, 100 ug/mL streptomycin and 0.25 ug/mL Amphotercin B (Invitrogen/Gibco®). Nodes were processed within 24 hours of removal by mincing into tiny pieces and passing through a tissue sieve. Cell suspensions were spun at 200×g, supernatant was removed, and the cell pellet was resuspended in NH4Cl for 10 minutes at room temperature. The cell suspension was pelleted by centrifugation; the NH4Cl was removed and washed once with Hanks Balanced Salt Solution (HBSS), followed by re-suspension in Proliferation Medium (Advanced RPMI complete, 1% FBS, […] 2-Mercaptoethanol, 100 U/mL penicillin, 100 ug/mL streptomycin and 0.25 ug/mL Amphotercin B). The cell suspension was then passed through a 100 μm nylon cell strainer (BD-Falcon) and counted using a hemacytometer. Cells were cultured in either Proliferation Medium alone, Proliferation Medium supplemented with 0.005% Pansorbin® (Heat inactivated, formalin-fixed Staphylococcus Aureus cells (SAC), Calbiochem), and 10 ng/mL canine IL-2 (R&D Systems), or Proliferation Medium supplemented with 125 ng/mL concavalin A (Sigma) and 125 ng/mL lipopolysaccarride (LPS; Calbiochem). […]

[4] = target: Recombinant JAK-1 (GST-JAK-1 (852-1142)) (Homo sapiens (Human), UniProt P23458); assay: JAK Enzymatic Assay (peptide mobility shift), JAK-1; type: biochemical; details: ATP 40 micromolar, IRS-1 peptide, 240 minutes
Method: (§4) Materials: Recombinant JAK-2 (Catalog Number PV4210) and JAK-3 (Catalog Number PV3855) were purchased from (Invitrogen Corporation, Madison, Wis.). Recombinant JAK-1 (GST-JAK-1 (852-1142)) and Tyk-2 (GST-Tyk2 (870-1187, C1187S)) used in this study were expressed and purified at Pfizer Laboratories. Adenosine 5′-triphosphate (ATP) was obtained from Sigma Chemical Company, St. Louis, Mo. […] Coating Reagent 3 was purchased from (Caliper Life Sciences, Hopkinton, Mass.).
(§5) Reactions were carried out in a 384-well plate (Matrical MP-101) in a 10 microliter total volume. Reaction mixtures contained 20 mM HEPES, pH 7.4, 10 mM magnesium chloride, 0.01% bovine serum albumin (BSA), 0.0005% Tween-20, ATP (4 micromolar for JAK-2 and JAK-3, 40 micromolar for JAK-1 and 7 micromolar for Tyk-2)), 2% DMSO and 1 micromolar peptide substrate (JAKtide for JAK-2 and JAK-3 or IRS-1 peptide for JAK-1 and Tyk-2). Compounds were diluted serially in 100% dimethyl sulfoxide and tested in an 11 point dose response in duplicate or quadruplicate (200 nl of compound/DMSO was added per 10 microliter reaction). […] Data was analyzed using Hits Well Analyzer Software from (Caliper Life Sciences) to obtain the amount of product formed.
(§6) Data was then imported into an internal application where each data point was expressed as % inhibition based on uninhibited and no enzyme controls. […]

[5] = system: MSU LN 9 De novo B-cell lymphoma lymph node cells; assay: Cell Proliferation Inhibitory Assay, ex vivo canine lymphoma nodal tissue MSU LN 9; type: cell-based; details: Canis lupus familiaris, Canine MSU LN 9, De novo B-cell lymphoma
Method: as §1

Recombinant JAK-2 = Recombinant JAK-2 (Homo sapiens (Human), UniProt O60674); details: read-out: JAK-2 IC50; ATP 4 micromolar, JAKtide, 150 minutes
Method: as §4, §5, §6

[6] = system: FETJ feline T-lymphoblast cell line; assay: Cell Proliferation Inhibitory Assay, FETJ; type: cell-based; details: Felis catus; Feline FETj lymphoid line (IL-2 independent); MTS
Method: (§2) Feline Cell Lines The MYA-1 and FETJ are feline T-lymphoblast cell lines obtained from ATCC (Manassas, Va.). These cells were cultured in RPMI 1640 complete media supplemented with 10% FBS at 37° C. in a humidified incubator with 5% CO2.
(§3) Cells cultured in medium described above were plated in 96-well Costar plates (Corning) at a density of 1×10^3 cells/well (feline cell lines) or 2×10^5 cells/well (lymph node cells) and exposed to various concentrations of test compounds for up to 5 days at 37° C. in a humidified incubator with 5% CO2. Effects on proliferation were determined using the CellTiter 96® AQueous Non-Radioactive Cell Proliferation Assay (Promega) according to manufacturer's instructions. In general, proliferation was indirectly measured using a soluble tetrazolium salt (MTS) and an electron coupling agent. MTS bioreduction into a formazan product soluble in tissue culture medium was monitored by absorbance at 490 nm on a Spectramax plate reader using Softmax Pro 4.6 software (Molecular Devices).

[7] = system: MYA-1 feline T-lymphoblast cell line; assay: Cell Proliferation Inhibitory Assay, MYA-1; type: cell-based; details: Felis catus; Feline MYA-1 lymphoid line (IL-2 dependent); MTS
Method: as §2, §3

Recombinant JAK-3 = Recombinant JAK-3 (Homo sapiens (Human), UniProt P52333); assay: JAK Enzymatic Assay (peptide mobility shift), JAK-3; type: biochemical; details: ATP 4 micromolar, JAKtide, 90 minutes
Method: as §4, §5, §6

[8] = system: MSU LN 8 De novo T-cell lymphoma lymph node cells; assay: Cell Proliferation Inhibitory Assay, ex vivo canine lymphoma nodal tissue MSU LN 8; type: cell-based; details: Canis lupus familiaris, Canine MSU LN 8, De novo T-cell lymphoma
Method: as §1

[9] = system: MSU LN 11 De novo B-cell lymphoma lymph node cells; assay: Cell Proliferation Inhibitory Assay, ex vivo canine lymphoma nodal tissue MSU LN 11; type: cell-based; details: Canis lupus familiaris; Canine MSU LN 11, De novo B-cell lymphoma; LPS + ConA
Method: as §1

Recombinant JAK-2, sequence (O60674 808-1132): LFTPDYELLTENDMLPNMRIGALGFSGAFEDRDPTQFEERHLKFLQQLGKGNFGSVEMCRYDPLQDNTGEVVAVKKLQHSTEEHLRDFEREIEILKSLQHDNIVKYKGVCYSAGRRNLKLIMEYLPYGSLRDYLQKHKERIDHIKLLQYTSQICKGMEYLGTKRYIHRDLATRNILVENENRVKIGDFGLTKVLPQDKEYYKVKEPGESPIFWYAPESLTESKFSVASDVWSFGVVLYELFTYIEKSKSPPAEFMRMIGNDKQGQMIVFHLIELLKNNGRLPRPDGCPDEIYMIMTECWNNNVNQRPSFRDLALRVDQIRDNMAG
Recombinant JAK-1 (GST-JAK-1 (852-1142)), sequence (P23458 852-1142): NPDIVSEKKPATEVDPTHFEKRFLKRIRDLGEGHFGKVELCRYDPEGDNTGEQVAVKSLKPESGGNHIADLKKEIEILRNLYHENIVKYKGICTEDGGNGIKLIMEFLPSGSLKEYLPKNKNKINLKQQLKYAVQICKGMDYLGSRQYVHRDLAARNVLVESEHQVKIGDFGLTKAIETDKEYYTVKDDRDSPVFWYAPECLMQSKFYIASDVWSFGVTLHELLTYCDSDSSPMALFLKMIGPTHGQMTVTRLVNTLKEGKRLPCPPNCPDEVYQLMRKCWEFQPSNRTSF
Recombinant JAK-3, sequence (P52333 781-1124): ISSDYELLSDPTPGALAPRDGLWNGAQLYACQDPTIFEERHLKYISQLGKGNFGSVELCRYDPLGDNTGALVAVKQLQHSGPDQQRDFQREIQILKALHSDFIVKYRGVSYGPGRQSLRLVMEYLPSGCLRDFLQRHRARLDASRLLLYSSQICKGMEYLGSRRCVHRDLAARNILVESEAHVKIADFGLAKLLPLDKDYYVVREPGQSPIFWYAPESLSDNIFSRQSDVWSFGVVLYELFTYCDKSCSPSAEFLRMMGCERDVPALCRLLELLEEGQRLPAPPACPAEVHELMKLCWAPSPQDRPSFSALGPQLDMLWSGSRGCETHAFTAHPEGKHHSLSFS

Work on `CCNS(=O)(=O)C[C@H]1CC[C@H](N(C)c2ncnc3[nH]ccc23)CC1` [Example 3, N-ethyl-1-{trans-4-[methyl(7H-pyrrolo[2,3-d]pyrimidin-4-yl)amino]cyclohexyl}methanesulfonamide] yielded an IC50 ([1]; whole blood from beagles) of 83 nM.
With `CNS(=O)(=O)C[C@H]1CC[C@H](N(C)c2ncnc3[nH]ccc23)CC1.O=C(O)/C=C\C(=O)O` [Example 1b, N-methyl-1-{trans-4-[methyl(7H-pyrrolo[2,3-d]pyrimidin-4-yl)amino]cyclohexyl}methanesulfonamide maleic acid salt] the “pruritus as compared to placebo (seconds of pruritus per 4 hour recording)” value ([2]; 0.25 mg/kg orally twice a day, days 1, 4 and 12) was “Significant reductions”, the “Lesions and erythema (VAS scores)” value ([2]; 0.5 mg/kg orally twice a day for 28 days, flea allergic dogs, Day 27 VAS) was “significantly reduced” and the “pruritus as compared to placebo (seconds of pruritus per 4 hour recording)” value ([2]; 0.5 mg/kg orally twice a day, days 1 and 20) was “Significant reductions”.
With `CNS(=O)(=O)C[C@H]1CC[C@H](N(C)c2ncnc3[nH]ccc23)CC1` [Example 1a, N-methyl-1-{trans-4-[methyl(7H-pyrrolo[2,3-d]pyrimidin-4-yl)amino]cyclohexyl}methanesulfonamide] the IC50 ([1]; whole blood from beagles) was 66.3 nM, the IC50 ([1]; whole blood from mixed breed dogs) was 138 nM and the IC50 [3] was 687 nM. The IC50 [4] was 9.53 nM, the IC50 ([5]; LPS + ConA) was 147 nM and the IC50 ([5]; SAC + IL-2) was 100 nM. It also gave an IC50 (Recombinant JAK-2) of 17.5 nM, an IC50 [6] of over 1000 nM and an IC50 [7] of 122 nM. The IC50 (Recombinant JAK-3) was 95.1 nM, the IC50 ([8]; LPS + ConA) was 357 nM and the IC50 ([8]; SAC + IL-2) was 38 nM. It also gave an IC50 [9] of 64 nM.
Compound `CN(c1ncnc2[nH]ccc12)[C@H]1CC[C@H](CS(=O)(=O)NC2CCC2)CC1` [Example 2, N-cyclobutyl-1-{trans-4-[methyl(7H-pyrrolo[2,3-d]pyrimidin-4-yl)amino]cyclohexyl}methanesulfonamide] has an IC50 ([1]; whole blood from beagles) of 410 nM, an IC50 [4] of 45 nM and an IC50 (Recombinant JAK-2) of 101 nM. For the same compound, the IC50 (Recombinant JAK-3) was 742 nM.
